Tests used:
[1] = Siegmund test (inhibition of pain); type: in vivo; conditions: 100 mg/kg p.o.
Experimental: (§1) The compounds of formula I are antidepressant, diuretic, antihypertensive, antihistamic, anticonvulsive, antipyretic, anti-inflammatory and/or analgesic agents. […] Exp. Biol. Med. 95, 729 (1957.)] In connection with its activity, this compound is very safe with a LD₅₀ of 1250 mg/kg p.o. in mice.

[2] = Acute toxicity LD50 p.o. in mice; conditions: mouse, in vivo, po, read-out: LD₅₀
Experimental: as §1

[3] = Antagonism of the effects of tetrabenazine (ptosis, akinesia, hypothermia), antidepressant activity; type: in vivo; conditions: for prevents ptosis: 25 mg/kg p.o., tetrabenazine-induced ptosis; for antagonism to hypothermia produced by tetrabenazine: dose not restated (25 mg/kg p.o. given for ptosis in same sentence)
Experimental: The antidepressant activity of these compounds is measured in terms of their capacity of antagonizing the effects of tetrabenazine (ptosis, akinesia and hypothermia), this action being characteristic of antidepressants such as amitriptiline or thianeptine (New Drugs: Discovery and Development. A.A. Rubin (Ed.), Marcel Dekker, Inc. New York-Basel, 203 (1978.)) For example, 2-[(5,10-dihydro-4,4-dioxo-5-methylthieno[3,4-c][2,1]benzothiazepin-10-yl)oxy]-N-methylethylamine (example 53) and 2-[(4,9-dihydro-2,9-dimethyl-10,10-dioxo-2H-pyrazolo[3,4-c][2,1]-benzothiazepin-4-yl)oxy]-1-ethylpyrrolidine (example 91) prevents ptosis at 25 mg/kg p.o., 100% and 90%, respectively, while the antagonism to hypothermia produced by tetrabenazine when administered is 85 % and 75 %, respectively.

Row | Compound | inhibition of pain [1] | LD50 [2] | prevents ptosis [3] | antagonism to hypothermia produced by tetrabenazine [3]
1 | CN1c2ccccc2C(O)c2sccc2S1(=O)=O (stereo not drawn) [example 1, 5,10-dihydro-4,4-dioxo-10-hydroxy-5-methylthieno[3,2-c][2,1]benzothiazepine] | 92% | 1250 mg/kg |  | 
2 | CNCCOC1c2ccccc2N(C)S(=O)(=O)c2cscc21 (stereo not drawn) [example 53, 2-[(5,10-dihydro-4,4-dioxo-5-methylthieno[3,4-c][2,1]benzothiazepin-10-yl)oxy]-N-methylethylamine] |  |  | 100% | 85%
3 | CN1c2ccccc2C(OCCN2CCCC2)c2cn(C)nc2S1(=O)=O (stereo not drawn) [example 91] |  |  | 90% | 75%
